Source: US8178669B2, “Fluorescent probe for peroxynitrite” (The University of Tokyo, priority 2005, dated 2012)

What was measured:
[1] = system: HeLa cells; assay: Imaging of peroxynitrite using Compound 4 in HeLa cells; format: cell-based; conditions: HeLa cells loaded with 2 μmol/L Compound 4, 20 minutes; peroxynitrite 10 μmol/L; excitation 470 to 490 nm, emission 510 to 550 nm
Protocol: HeLa cells were precultured in Dulbecco's modified Eagle's medium (DMEM) supplemented with 10% (v/v) fetal bovine serum, penicillin (100 units/mL), and streptomycin (100 μg/mL) in a 5% CO2 incubator. These HeLa cells were inoculated on a 35 mm glass bottom dish (MatTek Corporation), and further cultured overnight in DMEM. After 24 hours, the medium was removed, and the HeLa cells were washed with Hank's balanced salt solution (HBSS, 2×1 mL). The HeLa cells were added with 2 mL of 2 μmol/L solution of Compound 4 in HBSS (containing 0.01% DMF and 0.01% Cremophor EL (SIGMA) as auxiliary solvents), and incubated at room temperature for 20 minutes. Then, the HeLa cells were washed with HBSS (2×1 mL). Fluorescence images before addition of peroxynitrite and after addition of peroxynitrite at a final concentration of 10 μmol/L were photographed at an excitation wavelength of 470 to 490 nm and fluorescence emission wavelength of 510 to 550 nm.
Among the photographs, (A) is a differential interference microscope image of HeLa cells loaded with Compound 4, (B) is a pseudo color fluorescence image of fluorescence intensity before addition of peroxynitrite, (C) is a pseudo color fluorescence image of fluorescence intensity after addition of peroxynitrite, and (D) is a fused image of (A) and (B).

[2] = Reaction of Compound 4 and various reactive oxygen species: hypochlorite ion; conditions: 10 μmol/L Compound 4, pH 7.4; hypochlorite ions 10 μmol/L, 3 minutes
Protocol: (§1) A 10 μmol/L solution of Compound 4 was prepared by diluting a 20 mmol/L solution of Compound 4 in DMF with a 100 mmol/L phosphate buffer (pH 7.4), and used for the test. The prepared solution was treated under the following conditions for 3 minutes (except for (f), for which treatment time was 30 minutes).
(e) Hypochlorite ions were added to make a final concentration of 10 μmol/L.
(§2) After the reaction, change of fluorescence spectrum under each condition was measured to compare reactivities of the compound with (#2) peroxynitrite, (#3) hydrogen peroxide, (#4) singlet oxygen, (#5) hydroxyl radical, (#6) hypochlorite ion, and (#7) nitrogen monoxide.

[3] = Reaction of Compound 4 and various reactive oxygen species: hydroxyl radical; conditions: 10 μmol/L Compound 4, pH 7.4; hydrogen peroxide 1 mmol/L and iron(II) sulfate 50 μmol/L, 3 minutes
Protocol: as §1
(d) Hydrogen peroxide and iron(II) sulfate were added to make final concentrations of 1 mmol/L and 50 μmol/L, respectively.
as §2

[4] = Reaction of Compound 4 and peroxynitrite (fluorescence spectrum); conditions: 10 μmol/L Compound 4, 100 mmol/L phosphate buffer pH 7.4; peroxynitrite 1-50 μmol/L; after 60 seconds; excitation 505 nm
Protocol: A 10 μmol/L solution of Compound 4 was prepared by diluting a 20 mmol/L solution of Compound 4 in DMF with a 100 mmol/L phosphate buffer (pH 7.4). The solution was added with peroxynitrite solutions of 2 mmol/L, 5 mmol/L, 10 mmol/L, 20 mmol/L and 80 mmol/L at peroxynitrite final concentrations of 1, 2, 4, 5, 10, 20 or 50 μmol/L with stirring, and after 60 seconds, fluorescence spectrum was measured (excitation wavelength: 505 nm).

[5] = Reaction of Compound 4 and various reactive oxygen species: singlet oxygen; conditions: 10 μmol/L Compound 4, pH 7.4; hydrogen peroxide 1 mmol/L and hypochlorite ions 100 μmol/L, 3 minutes
Protocol: as §1
(c) Hydrogen peroxide and hypochlorite ions were added to make final concentrations of 1 mmol/L and 100 μmol/L, respectively.
as §2

[6] = Reaction of Compound 4 and various reactive oxygen species: peroxynitrite
Protocol: as §1
(a) Peroxynitrite was added to make a final concentration of 10 μmol/L.
as §2

[7] = Reaction of Compound 4 and various reactive oxygen species: hydrogen peroxide; conditions: 10 μmol/L Compound 4, pH 7.4; hydrogen peroxide 1 mmol/L, 3 minutes
Protocol: as §1
(b) Hydrogen peroxide was added to make a final concentration of 1 mmol/L.
as §2

[8] = Reaction of Compound 4 and various reactive oxygen species: nitrogen monoxide; conditions: 10 μmol/L Compound 4, pH 7.4; NOC-13 100 μmol/L, 30 minutes
Protocol: as §1
(f) NOC-13 (nitrogen monoxide discharging agent, Dojindo Laboratory) was added to make a final concentration of 100 μmol/L.
as §2

CC1=C(C#N)C(C)=[N+]2C1=C(c1ccc(O)cc1OCC(=O)O)c1c(C)c(C#N)c(C)n1[B-]2(F)F [Compound 4, 2,6-dicyano-8-(4-hydroxy-2-carboxymethoxyphenyl)-1,3,5,7-tetramethyl-4,4-difluoro-4-bora-3a,4a-diaza-s-indacene]
fluorescence imaging of peroxynitrite in cells [1]: fluorescence imaging of peroxynitrite was performable | fluorescence after addition of hypochlorite ion [2]: did not emit fluorescence at all | fluorescence after addition of hydroxyl radical [3]: did not emit fluorescence at all | change of fluorescence intensity on addition of peroxynitrite [4]: peroxynitrite addition amount-dependent increase in fluorescence intensity was observed | fluorescence after addition of singlet oxygen [5]: did not emit fluorescence at all | fluorescence after addition of peroxynitrite ([6]; 10 μmol/L Compound 4, pH 7.4, peroxynitrite 10 μmol/L, 3 minutes): emitted intense fluorescence | selectivity to peroxynitrite over other reactive oxygen species ([6]; compared with hydrogen peroxide, singlet oxygen, hydroxyl radical, hypochlorite ion, nitrogen monoxide): high selectivity to peroxynitrite | fluorescence after addition of hydrogen peroxide [7]: did not emit fluorescence at all | fluorescence after addition of nitrogen monoxide [8]: did not emit fluorescence at all
